Measured values reported in patent publication US8410112B2, “Compounds useful as inhibitors of ATR kinase” (Vertex Pharmaceuticals Incorporated, priority 2008, dated 2013).

Target: T1, intracellular ATR (Homo sapiens, UniProt Q13535)
T1 construct: endogenous in cells; host or cells: HT29
Assay: Cellular ATR Inhibition Assay (H2AX phosphorylation, immunofluorescence microscopy)
Type: cell-based
Conditions: HT29 cells, 2 mM hydroxyurea, percentage of phosphorylated H2AX Ser139-positive nuclei
Method: Compounds were screened for their ability to inhibit intracellular ATR using an immunofluorescence microscopy assay to detect phosphorylation of the ATR substrate histone H2AX in hydroxyurea treated cells. HT29 cells were plated at 14,000 cells per well in 96-well black imaging plates (BD 353219) in McCoy's 5A media (Sigma M8403) supplemented with 10% foetal bovine serum (JRH Biosciences 12003), Penicillin/Streptomycin solution diluted 1:100 (Sigma P7539), and 2 mM L-glumtamine (Sigma G7513), and allowed to adhere overnight at 37° C. in 5% CO2. Compounds were then added to the cell media from a final concentration of 25 μM in 3-fold serial dilutions and the cells were incubated at 37° C. in 5% CO2. After 15 min, hydroxyurea (Sigma H8627) was added to a final concentration of 2 mM.
After 45 min of treatment with hydroxyurea, the cells were washed in PBS, fixed for 10 min in 4% formaldehyde diluted in PBS (Polysciences Inc 18814), washed in 0.2% Tween-20 in PBS (wash buffer), and permeabilised for 10 min in 0.5% Triton X-100 in PBS, all at room temperature. The cells were then washed once in wash buffer and blocked for 30 min at room temperature in 10% goat serum (Sigma G9023) diluted in wash buffer (block buffer). To detect H2AX phosphorylation levels, the cells were then incubated for 1 h at room temperature in primary antibody (mouse monoclonal anti-phosphorylated histone H2AX Ser139 antibody; Upstate 05-636) diluted 1:250 in block buffer. The cells were then washed five times in wash buffer before incubation for 1 h at room temperature in the dark in a mixture of secondary antibody (goat anti-mouse Alexa Fluor 488 conjugated antibody; Invitrogen A11029) and Hoechst stain (Invitrogen H3570); diluted 1:500 and 1:5000, respectively, in wash buffer. The cells were then washed five times in wash buffer and finally 100 ul PBS was added to each well before imaging.
Cells were imaged for Alexa Fluor 488 and Hoechst intensity using the BD Pathway 855 Bioimager and Attovision software (BD Biosciences, Version 1.6/855) to quantify phosphorylated H2AX Ser139 and DNA staining, respectively. The percentage of phosphorylated H2AX-positive nuclei in a montage of 9 images at 20× magnification was then calculated for each well using BD Image Data Explorer software (BD Biosciences Version 2.2.15). Phosphorylated H2AX-positive nuclei were defined as Hoechst-positive regions of interest containing Alexa Fluor 488 intensity at 1.75-fold the average Alexa Fluor 488 intensity in cells not treated with hydroxyurea. The percentage of H2AX positive nuclei was finally plotted against concentration for each compound and IC50s for intracellular ATR inhibition were determined using Prism software (GraphPad Prism version 3.0cx for Macintosh, GraphPad Software, San Diego Calif., USA).

T1 sequence (Q13535 whole entry): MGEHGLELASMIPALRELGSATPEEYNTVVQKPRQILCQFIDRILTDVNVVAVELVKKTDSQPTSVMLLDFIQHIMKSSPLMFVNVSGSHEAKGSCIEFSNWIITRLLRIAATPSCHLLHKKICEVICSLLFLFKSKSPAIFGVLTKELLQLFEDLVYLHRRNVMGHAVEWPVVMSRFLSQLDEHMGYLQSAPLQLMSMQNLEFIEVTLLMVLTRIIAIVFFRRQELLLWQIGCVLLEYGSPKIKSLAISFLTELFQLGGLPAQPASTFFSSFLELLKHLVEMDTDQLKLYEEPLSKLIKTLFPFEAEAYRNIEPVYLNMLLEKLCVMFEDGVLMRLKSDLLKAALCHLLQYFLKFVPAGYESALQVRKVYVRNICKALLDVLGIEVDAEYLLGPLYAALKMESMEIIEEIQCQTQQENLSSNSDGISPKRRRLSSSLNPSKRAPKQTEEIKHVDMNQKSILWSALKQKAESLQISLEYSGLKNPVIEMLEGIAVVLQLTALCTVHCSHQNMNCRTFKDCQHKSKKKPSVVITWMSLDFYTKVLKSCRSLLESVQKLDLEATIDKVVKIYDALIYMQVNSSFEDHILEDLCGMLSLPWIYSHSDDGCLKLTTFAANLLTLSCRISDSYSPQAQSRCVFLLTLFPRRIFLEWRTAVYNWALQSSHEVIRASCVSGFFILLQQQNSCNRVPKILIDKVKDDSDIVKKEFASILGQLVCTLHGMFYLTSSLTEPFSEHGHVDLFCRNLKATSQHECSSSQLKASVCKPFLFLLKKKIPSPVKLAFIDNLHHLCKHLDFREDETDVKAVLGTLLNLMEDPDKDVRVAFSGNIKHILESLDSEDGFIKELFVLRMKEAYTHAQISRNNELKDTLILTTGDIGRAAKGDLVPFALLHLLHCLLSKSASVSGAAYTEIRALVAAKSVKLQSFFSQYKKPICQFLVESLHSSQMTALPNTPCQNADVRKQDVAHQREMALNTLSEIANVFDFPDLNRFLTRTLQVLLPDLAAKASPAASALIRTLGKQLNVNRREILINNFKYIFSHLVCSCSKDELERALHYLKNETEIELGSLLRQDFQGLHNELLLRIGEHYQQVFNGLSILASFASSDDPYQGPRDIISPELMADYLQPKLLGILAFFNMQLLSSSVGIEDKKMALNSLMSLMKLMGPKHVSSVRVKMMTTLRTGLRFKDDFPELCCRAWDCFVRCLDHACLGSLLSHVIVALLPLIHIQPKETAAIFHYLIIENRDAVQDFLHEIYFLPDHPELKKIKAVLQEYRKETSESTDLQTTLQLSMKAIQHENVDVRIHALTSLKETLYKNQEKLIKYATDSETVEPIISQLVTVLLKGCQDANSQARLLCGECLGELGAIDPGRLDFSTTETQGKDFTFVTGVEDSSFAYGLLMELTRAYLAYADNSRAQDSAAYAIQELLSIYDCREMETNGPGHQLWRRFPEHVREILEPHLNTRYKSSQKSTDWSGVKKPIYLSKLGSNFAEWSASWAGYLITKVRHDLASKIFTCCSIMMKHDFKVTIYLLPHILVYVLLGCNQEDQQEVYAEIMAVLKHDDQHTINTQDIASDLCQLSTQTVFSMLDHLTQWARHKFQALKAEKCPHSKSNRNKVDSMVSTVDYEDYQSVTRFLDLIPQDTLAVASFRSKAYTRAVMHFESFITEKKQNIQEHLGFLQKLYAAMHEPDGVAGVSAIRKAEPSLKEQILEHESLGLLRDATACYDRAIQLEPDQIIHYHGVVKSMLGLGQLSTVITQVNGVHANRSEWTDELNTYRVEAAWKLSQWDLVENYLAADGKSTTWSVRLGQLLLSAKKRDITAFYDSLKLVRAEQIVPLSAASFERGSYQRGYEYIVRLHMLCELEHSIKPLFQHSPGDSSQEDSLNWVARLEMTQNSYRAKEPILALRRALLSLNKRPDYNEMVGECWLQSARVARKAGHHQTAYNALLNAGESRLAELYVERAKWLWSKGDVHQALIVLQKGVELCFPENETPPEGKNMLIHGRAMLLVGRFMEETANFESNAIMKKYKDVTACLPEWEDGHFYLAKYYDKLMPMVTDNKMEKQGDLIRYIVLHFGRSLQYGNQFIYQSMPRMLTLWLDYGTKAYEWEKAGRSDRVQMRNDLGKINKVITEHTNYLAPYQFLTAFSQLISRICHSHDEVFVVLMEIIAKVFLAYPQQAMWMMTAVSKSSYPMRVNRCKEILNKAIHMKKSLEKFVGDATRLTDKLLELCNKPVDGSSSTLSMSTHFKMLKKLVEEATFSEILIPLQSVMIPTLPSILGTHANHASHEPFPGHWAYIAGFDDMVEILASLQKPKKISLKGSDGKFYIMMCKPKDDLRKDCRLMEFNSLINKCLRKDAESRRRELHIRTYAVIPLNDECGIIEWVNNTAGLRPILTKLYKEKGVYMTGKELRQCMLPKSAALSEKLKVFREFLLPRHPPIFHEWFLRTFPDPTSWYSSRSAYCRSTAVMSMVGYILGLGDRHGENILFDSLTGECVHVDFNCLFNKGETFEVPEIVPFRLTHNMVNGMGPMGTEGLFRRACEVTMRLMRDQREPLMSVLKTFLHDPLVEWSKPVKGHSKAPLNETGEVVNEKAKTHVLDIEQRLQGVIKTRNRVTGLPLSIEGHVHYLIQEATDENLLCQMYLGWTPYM
T1 sequence (Q8WXE1 whole entry partner): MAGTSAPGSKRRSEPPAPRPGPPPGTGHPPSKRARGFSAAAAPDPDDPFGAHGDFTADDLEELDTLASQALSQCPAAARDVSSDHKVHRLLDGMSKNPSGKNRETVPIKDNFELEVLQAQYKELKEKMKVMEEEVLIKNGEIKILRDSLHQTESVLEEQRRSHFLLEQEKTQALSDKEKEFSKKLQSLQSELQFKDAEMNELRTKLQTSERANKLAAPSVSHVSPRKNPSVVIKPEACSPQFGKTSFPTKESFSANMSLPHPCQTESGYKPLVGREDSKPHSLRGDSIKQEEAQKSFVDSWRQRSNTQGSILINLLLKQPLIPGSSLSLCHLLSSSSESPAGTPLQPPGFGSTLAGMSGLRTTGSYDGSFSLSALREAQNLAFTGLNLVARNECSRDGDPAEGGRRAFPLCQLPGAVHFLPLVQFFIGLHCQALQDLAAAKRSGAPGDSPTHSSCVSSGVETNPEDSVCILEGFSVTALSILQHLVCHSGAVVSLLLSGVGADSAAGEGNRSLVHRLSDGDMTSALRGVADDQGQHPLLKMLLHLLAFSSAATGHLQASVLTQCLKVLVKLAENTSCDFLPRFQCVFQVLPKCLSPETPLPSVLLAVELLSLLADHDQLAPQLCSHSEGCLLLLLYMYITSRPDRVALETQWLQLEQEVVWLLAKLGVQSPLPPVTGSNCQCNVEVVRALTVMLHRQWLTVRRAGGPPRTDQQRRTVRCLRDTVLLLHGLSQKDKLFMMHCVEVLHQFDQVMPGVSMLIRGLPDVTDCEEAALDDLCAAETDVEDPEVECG

First: CCS(=O)(=O)N1CCN(c2cnc(N)c(-c3nc4ccccc4[nH]3)n2)CC1 [Compound I-16, 3-(1H-benzo[d]imidazol-2-yl)-5-(4-(ethylsulfonyl)piperazin-1-yl)pyrazin-2-amine]
Second: Cc1ccc2nc(-c3nc(-n4ccc(=O)cc4)cnc3N)[nH]c2c1 [Compound I-24, 1-(5-amino-6-(6-methyl-1H-benzo[d]imidazol-2-yl)pyrazin-2-yl)pyridin-4(1H)-one]
The IC50 of the first is higher: 10000 to 30000 nM for the first, 1000 to 5000 nM for the second. The second is the more potent here.

Target: T2, full-length ATR (Homo sapiens, UniProt Q13535)
T2 construct: in the presence of 5 nM full-length ATR
Assay: ATR Inhibition Assay (radioactive-phosphate incorporation)
Type: biochemical
Conditions: Ki(app); 5 nM full-length ATR, 10 μM ATP, 800 μM target peptide, 25° C.
In short: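 Buffer was 50 mM Tris/HCl pH 7.5, 10 mM MgCl2, 1 mM DTT, with 5 nM enzyme, 10 μM [γ-33P]ATP and 800 μM target peptide at 25 °C. Compound was pre-incubated 10 min before ATP start, and the reaction was stopped after 24 h. Phosphocellulose filter capture; Ki(app) came from non-linear regression of background-corrected initial rates.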

T2 sequence (Q13535 whole entry): as the sequence (Q13535 whole entry) above

First: CCS(=O)(=O)N1CCN(c2cnc(N)c(-c3nc4ccccc4[nH]3)n2)CC1 [Compound I-16, 3-(1H-benzo[d]imidazol-2-yl)-5-(4-(ethylsulfonyl)piperazin-1-yl)pyrazin-2-amine]
Second: Cc1ccc2nc(-c3nc(-n4ccc(=O)cc4)cnc3N)[nH]c2c1 [Compound I-24, 1-(5-amino-6-(6-methyl-1H-benzo[d]imidazol-2-yl)pyrazin-2-yl)pyridin-4(1H)-one]
The Ki of the first is higher: 100 to 1000 nM for the first, < 100 nM for the second. The second binds more tightly here.

`CCS(=O)(=O)NC1CC[C@H]2CN(c3cnc(N)c(-c4nnc(-c5ccc(CNC)cc5)o4)n3)C[C@@H]12` (stereo partly drawn) [Compound I-354, N-((3aS,6aR)-2-(5-Amino-6-(5-(4-((methylamino)methyl)phenyl)-1,3,4-oxadiazol-2-yl)pyrazin-2-yl)octahydrocyclopenta[c]pyrrol-4-yl)ethanesulfonamide] and `CCC(=O)NC1CC[C@H]2CN(c3cnc(N)c(-c4nnc(-c5ccc(CNC)cc5)o4)n3)C[C@@H]12` (stereo partly drawn) [Compound I-355, N-((3aS,6aR)-2-(5-Amino-6-(5-(4-((methylamino)methyl)phenyl)-1,3,4-oxadiazol-2-yl)pyrazin-2-yl)octahydrocyclopenta[c]pyrrol-4-yl)propionamide] fall in the same range of Ki: 100 to 1000 nM for the first, 100 to 1000 nM for the second.

`CNCc1ccc(-c2nnc(-c3nc(N4CCC[C@@H]4CO)cnc3N)o2)cc1` [Compound I-356, [(2R)-1-[5-Amino-6-[5-[4-(methylaminomethyl)phenyl]-1,3,4-oxadiazol-2-yl]pyrazin-2-yl]pyrrolidin-2-yl]methanol] and `CNCc1ccc(-c2nnc(-c3nc(N4CCC[C@@H]4C)cnc3N)o2)cc1` [Compound I-361, 3-[5-[4-(Methylaminomethyl)phenyl]-1,3,4-oxadiazol-2-yl]-5-[(2S)-2-methylpyrrolidin-1-yl]pyrazin-2-amine] fall in the same range of Ki: 100 to 1000 nM for the first, 100 to 1000 nM for the second.

`CCNC(=O)[C@H]1CCCN1c1cnc(N)c(-c2nnc(-c3ccc(CNC)cc3)o2)n1` [Compound I-357, (2R)-1-[5-Amino-6-[5-[4-(methylaminomethyl)phenyl]-1,3,4-oxadiazol-2-yl]pyrazin-2-yl]-N-ethyl-pyrrolidine-2-carboxamide] and `CNCc1ccc(-c2nnc(-c3nc(N4CCC[C@H]4C)cnc3N)o2)cc1` [Compound I-362, 3-[5-[4-(Methylaminomethyl)phenyl]-1,3,4-oxadiazol-2-yl]-5-[(2R)-2-methylpyrrolidin-1-yl]pyrazin-2-amine] fall in the same range of Ki: 100 to 1000 nM for the first, 100 to 1000 nM for the second.

First: CCC(=O)NC1[C@H]2CN(c3cnc(N)c(-c4nnc(-c5ccc(CNC)cc5)o4)n3)C[C@@H]12 (stereo partly drawn) [Compound I-358, N-[(1S,5R)-3-[5-amino-6-[5-[4-(methylaminomethyl)phenyl]-1,3,4-oxadiazol-2-yl]pyrazin-2-yl]-3-azabicyclo[3.1.0]hexan-6-yl]propanamide]
Second: CCS(=O)(=O)N[C@@H]1C2CN(c3cnc(N)c(-c4nnc(-c5ccc(CNC)cc5)o4)n3)C[C@@H]21 (stereo partly shown) [Compound I-369]
The Ki of the first is higher: 100 to 1000 nM for the first, < 100 nM for the second. The second binds more tightly here.

`CCC(=O)N1CCN(c2cnc(N)c(-c3nnc(-c4ccc(CNC)cc4)o3)n2)[C@H](C)C1` [Compound I-359, (R)-1-(4-(5-Amino-6-(5-(4-((methylamino)methyl)phenyl)-1,3,4-oxadiazol-2-yl)pyrazin-2-yl)-3-methylpiperazin-1-yl)propan-1-one] and `CCC(=O)N1CCN(c2cnc(N)c(-c3nnc(-c4ccc(CNC)cc4)o3)n2)CC12CC2` [Compound I-363, 1-(7-(5-Amino-6-(5-(4-((methylamino)methyl)phenyl)-1,3,4-oxadiazol-2-yl)pyrazin-2-yl)-4,7-diazaspiro[2.5]octan-4-yl)propan-1-one] fall in the same range of Ki: 100 to 1000 nM for the first, 100 to 1000 nM for the second.

`CNCc1ccc(-c2nnc(-c3nc(N4CCC5(CCNC5=O)CC4)cnc3N)o2)cc1` [Compound I-360, 8-(5-Amino-6-(5-(4-((methylamino)methyl)phenyl)-1,3,4-oxadiazol-2-yl)pyrazin-2-yl)-2,8-diazaspiro[4.5]decan-1-one] and `CNCc1ccc(-c2nnc(-c3nc(N4CCC(N5CCCC5=O)CC4)cnc3N)o2)cc1` [Compound I-364, 1-(1-(5-Amino-6-(5-(4-((methylamino)methyl)phenyl)-1,3,4-oxadiazol-2-yl)pyrazin-2-yl)piperidin-4-yl)pyrrolidin-2-one] fall in the same range of Ki: 100 to 1000 nM for the first, 100 to 1000 nM for the second.

`CCC(=O)N(C)C1CCN(c2cnc(N)c(-c3nnc(-c4ccc(CNC)cc4)o3)n2)CC1` [Compound I-365, N-(1-(5-Amino-6-(5-(4-((methylamino)methyl)phenyl)-1,3,4-oxadiazol-2-yl)pyrazin-2-yl)piperidin-4-yl)-N-methylpropionamide] and `CCC(=O)NC1CCN(c2cnc(N)c(-c3nnc(-c4ccc(CNC)cc4)o3)n2)CC1` [Compound I-366, N-(1-(5-Amino-6-(5-(4-((methylamino)methyl)phenyl)-1,3,4-oxadiazol-2-yl)pyrazin-2-yl)piperidin-4-yl)propionamide] fall in the same range of Ki: 100 to 1000 nM for the first, 100 to 1000 nM for the second.

First: CCC(=O)NC1CC=C(c2cnc(N)c(-c3nnc(-c4ccc(CNC)cc4)o3)n2)CC1 (stereo not shown) [Compound I-367, N-(4-(5-Amino-6-(5-(4-((methylamino)methyl)phenyl)-1,3,4-oxadiazol-2-yl)pyrazin-2-yl)cyclohex-3-enyl)propionamide]
Second: CCNC(=O)C1CC1c1cnc(N)c(-c2nnc(-c3ccc(CNC)cc3)o2)n1 (stereo not shown) [Compound I-375, 2-[5-Amino-6-[5-[4-(methylaminomethyl)phenyl]-1,3,4-oxadiazol-2-yl]pyrazin-2-yl]-N-ethyl-cyclopropanecarboxamide]
The Ki of the first is lower: < 100 nM for the first, 100 to 1000 nM for the second.

`CNCc1ccc(-c2nnc(-c3nc(N4CCC5(C4)CN(S(=O)(=O)C(C)C)C5)cnc3N)o2)cc1` [Compound I-368, 5-(2-(Isopropylsulfonyl)-2,6-diazaspiro[3.4]octan-6-yl)-3-(5-(4-((methylamino)methyl)phenyl)-1,3,4-oxadiazol-2-yl)pyrazin-2-amine] and `CNCc1ccc(-c2nnc(-c3nc(N4C[C@@H]5[C@H](C4)[C@@H]5NS(=O)(=O)C(C)C)cnc3N)o2)cc1` [Compound I-370, N-[(1S,5R)-3-[5-Amino-6-[5-[4-(methylaminomethyl)phenyl]-1,3,4-oxadiazol-2-yl]pyrazin-2-yl]-3-azabicyclo[3.1.0]hexan-6-yl]propane-2-sulfonamide] fall in the same range of Ki: 100 to 1000 nM for the first, 100 to 1000 nM for the second.

`CNCc1ccc(-c2nnc(-c3nc(N4CCC(O)C4)cnc3N)o2)cc1` (stereo not shown) [Compound I-371, (35)-1-[5-Amino-6-[5-[4-(methylaminomethyl)phenyl]-1,3,4-oxadiazol-2-yl]pyrazin-2-yl]pyrrolidin-3-ol] and `CCNC(=O)O[C@H]1CCN(c2cnc(N)c(-c3nnc(-c4ccc(CNC)cc4)o3)n2)C1` [Compound I-372, [(3S)-1-[5-Amino-6-[5-[4-(methylaminomethyl)phenyl]-1,3,4-oxadiazol-2-yl]pyrazin-2-yl]pyrrolidin-3-yl]N-ethylcarbamate] fall in the same range of Ki: 100 to 1000 nM for the first, 100 to 1000 nM for the second.

First: CNCc1ccc(-c2nnc(-c3nc(N4CC[C@H](OC(=O)NCCOC)C4)cnc3N)o2)cc1 [Compound I-373, [(3S)-1-[5-Amino-6-[5-[4-(methylaminomethyl)phenyl]-1,3,4-oxadiazol-2-yl]pyrazin-2-yl]pyrrolidin-3-yl]N-(2-methoxyethyl)carbamate]
Second: CNCc1ccc(-c2nnc(-c3nc(C4CC4C(=O)N(C)CCOC)cnc3N)o2)cc1 (stereo not shown) [Compound I-377]
The Ki of the first is lower: 100 to 1000 nM for the first, 1000 to 10000 nM for the second. The first binds more tightly here.

Compared with `CNCc1ccc(-c2nnc(-c3nc(C4CC4C(=O)N4CC[C@@H](N)C4)cnc3N)o2)cc1` (stereo partly drawn) [Compound I-374, (2-(5-Amino-6-(5-(4-((methylamino)methyl)phenyl)-1,3,4-oxadiazol-2-yl)pyrazin-2-yl)cyclopropyl)((R)-3-aminopyrrolidin-1-yl)methanone], `CNCc1ccc(-c2nnc(-c3nc(C4CC4C(=O)NCC(O)CO)cnc3N)o2)cc1` (stereo not shown) [Compound I-376, 2-[5-Amino-6-[5-[4-(methylaminomethyl)phenyl]-1,3,4-oxadiazol-2-yl]pyrazin-2-yl]-N-(2,3-dihydroxypropyl)cyclopropanecarboxamide] is lower in Ki: 1000 to 10000 nM for the first, 100 to 1000 nM for the second. The second binds more tightly here.
